{"source": "ChEMBL document CHEMBL5352503", "about": "“Nonpeptidic Oxazole-Based Prolyl Oligopeptidase Ligands with Disease-Modifying Effects on α-Synuclein Mouse Models of Parkinson's Disease” (J Med Chem, 2023)", "biological_target": "Alpha-synuclein (Homo sapiens) (UniProt P37840)", "assay": "Inhibition of alpha-synuclein (unknown origin) dimerization transfected in mouse Neuro2a cells assessed as reduction in aggregation at 10 uM incubated for 4 hrs by split Gaussia luciferase-based assay relative to control; values are per cent of control"}
{"smiles": "COc1ccc(CCCc2nc(C)c(N3CCC[C@H]3C#N)o2)cc1", "values": [{"measurement": "residual activity", "value": 100, "unit": "%"}]}
